What was measured:
[1] = tested on: deadnettle; assay: Test D pre-/postemergence herbicide test; format: in vivo, Lamium amplexicaule; settings: for Plant response rating, Deadnettle: scale 0 to 100 (0 no effect, 100 complete control); for Plant response rating: Deadnettle, scale 0 to 100
Procedure, shortened: (§1)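 Visual injury score, 0 (no effect) to 100 (complete control), taken 7–21 d post-treatment against untreated controls. Application was preemergence in silt loam and postemergence at 1- to 4-leaf stage, using a surfactant-containing non-phytotoxic solvent formulation.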

[2] = tested on: galium; assay: Test D pre-/postemergence herbicide test; format: in vivo, Galium aparine; settings: for Plant response rating, Galium: scale 0 to 100 (0 no effect, 100 complete control); for Plant response rating: Galium, scale 0 to 100
Procedure, shortened: as §1

[3] = tested on: barnyardgrass; assay: Test E preemergence herbicide test; format: in vivo, Echinochloa crus-galli; set-up: key: 0 = no effect, 100 = complete control
From the text: (§2) Seeds of plant species selected from corn (Zea mays), soybean (Glycine max), velvetleaf (Abutilon theophrasti), lambsquarters (Chenopodium album), wild poinsettia (Euphorbia heterophylla), pigweed, palmer (palmer pigweed, Amaranthus palmeri), waterhemp (common waterhemp, Amaranthus rudis), surinam grass (Brachiaria decumbens), crabgrass, large (large crabgrass, Digitaria sanguinalis), crabgrass, Brazil (Brazilian crabgrass, Digitaria horizontalis), panicum, fall (fall panicum, Panicum dichotomiflorum), foxtail, giant (giant foxtail, Setaria faberii), foxtail, green (green foxtail, Setaria viridis), goosegrass (Eleusine indica), johnsongrass (Sorghum halepense), ragweed (common ragweed, Ambrosia elatior), barnyardgrass (Echinochloa crus-galli), sandbur (southern sandbur, Cenchrus echinatus), arrowleaf […] rhombifolia), ryegrass, Italian (Italian ryegrass, Lolium multiflorum), dayflower, VA (Virginia dayflower, Commelina virginica), field bindweed (Convolvulus arvensis), morningglory (Ipomoea coccinea), nightshade (eastern black nightshade, Solanum ptycanthum), kochia (Kochia scoparia), nutsedge, yellow (yellow nutsedge, Cyperus esculentus), cocklebur (common cocklebur, Xanthium strumarium), smartweed (ladysthumb smartweed, Polygonum Persicaria) and beggarticks (hairy beggarticks, Bidens pilosa), were planted into a silt loam soil and treated preemergence with test chemicals formulated in a non-phytotoxic solvent mixture which included a surfactant. Treated plants and controls were maintained in a greenhouse for 21 days, after which time all species were compared to controls and visually evaluated. Plant response ratings, summarized in Table E, are based on a scale of 0 to 100 where 0 is no effect and 100 is complete control. A dash (-) response means no test result.

[4] = tested on: kochia; assay: Test E preemergence herbicide test; format: in vivo, Kochia scoparia; set-up: key: 0 = no effect, 100 = complete control
From the text: as §2

[5] = tested on: goosegrass; assay: Test C pre-/postemergence herbicide test; format: in vivo, Eleusine indica
Procedure, shortened: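 Visual rating, 0 (no effect) to 100 (complete control), versus untreated controls after 13 to 15 days in the greenhouse. Pre: seeds in loam/sand, sprayed at planting. Post: 1- to 4-leaf plants (2 to 18 cm) in peat-based mix. Compounds in non-phytotoxic solvent plus surfactant.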

[6] = Preemergence, 62 g ai/ha, scale 0 to 100
[7] = Preemergence, 125 g ai/ha, scale 0 to 100 (0 no effect, 100 complete control)
[8] = Preemergence, 31 g ai/ha, scale 0 to 100 (0 no effect, 100 complete control)

| SMILES | Plant response rating, Deadnettle ([1]; Preemergence, 62 g ai/ha) | Plant response rating, Deadnettle ([1]; Preemergence, 31 g ai/ha) | Plant response rating ([1]; Preemergence, 250 g ai/ha) | Plant response rating, Galium ([2]; Preemergence, 62 g ai/ha) | Plant response rating, Galium ([2]; Preemergence, 31 g ai/ha) | Plant response rating ([2]; Preemergence, 250 g ai/ha) | Plant response rating, Barnyardgrass ([3]; 31 g ai/ha) | Plant response rating, Barnyardgrass ([3]; 62 g ai/ha) | Plant response rating, Barnyardgrass ([3]; 125 g ai/ha) | Plant response rating, Barnyardgrass ([3]; 250 g ai/ha) | Plant response rating, Kochia ([4]; 31 g ai/ha) | Plant response rating, Kochia ([4]; 62 g ai/ha) | Plant response rating, Kochia ([4]; 125 g ai/ha) | Plant response rating, Kochia ([4]; 250 g ai/ha) | Plant response rating ([1]; Postemergence, 31 g ai/ha) | Plant response rating ([1]; Postemergence, 62 g ai/ha) | Plant response rating ([1]; Postemergence, 125 g ai/ha) | Plant response rating ([1]; Postemergence, 250 g ai/ha) | Plant response rating ([2]; Postemergence, 31 g ai/ha) | Plant response rating ([2]; Postemergence, 62 g ai/ha) | further results |
| --- | --- | --- | --- | --- | --- | --- | --- | --- | --- | --- | --- | --- | --- | --- | --- | --- | --- | --- | --- | --- | --- |
| O=C1NC[C@H](c2cccc(C(F)(F)F)c2)[C@H]1C(=O)Nc1cccc(F)c1F [Compound 206] | 35 | 20 | 75 | 40 | 10 | 80 | 70 | 75 | 95 | 98 | 0 | 0 | 50 | 80 |  |  |  |  |  |  | Plant response rating, Deadnettle ([1]; Preemergence, 125 g ai/ha): 40; Plant response rating, Galium ([2]; Preemergence, 125 g ai/ha): 50 |
| O=C1NCC(c2ccc(C(F)(F)F)cc2)C1C(=O)Nc1cccc(F)c1F (racemic) [Compound 202] | 65 | 40 | 85 | 70 | 75 | 85 | 40 | 80 | 85 | 98 | 95 | 95 | 95 | 98 | 5 | 35 | 60 | 70 | 60 | 70 | Plant response rating ([1]; Preemergence, 125 g ai/ha): 80; Plant response rating ([2]; Postemergence, 125 g ai/ha): 70; Plant response rating ([2]; Postemergence, 250 g ai/ha): 70; Plant response rating ([2]; Preemergence, 125 g ai/ha): 80 |
| O=C1NCC(c2ccc(Cl)c(Cl)c2)C1C(=O)Nc1ccccc1F (racemic) [Compound 14] |  |  |  |  |  |  | 0 | 0 | 40 | 75 | 0 | 0 | 0 | 0 |  |  |  |  |  |  | Plant response rating, Barnyardgrass ([3]; 16 g ai/ha): 0; Plant response rating, Kochia ([4]; 16 g ai/ha): 0; Plant response rating, Goosegrass [5, 6]: 0; Plant response rating, Goosegrass [5, 7]: 0; Goosegrass plant response rating [5, 8]: 0 |
| O=C1NCC(c2ccc(C(F)(F)F)cc2)C1C(=O)Nc1cccc(F)c1F (stereo not drawn) [Compound 80, N-(2,3-difluorophenyl)-2-oxo-4-[4-(trifluoromethyl)phenyl]-3-pyrrolidinecarboxamide] | 0 | 0 | 70 | 45 | 0 | 75 | 20 | 50 | 75 | 80 | 60 | 60 | 80 | 90 | 70 | 60 | 70 | 40 | 20 | 45 | Plant response rating ([1]; Preemergence, 125 g ai/ha): 65; Plant response rating ([2]; Postemergence, 125 g ai/ha): 55; Plant response rating ([2]; Postemergence, 250 g ai/ha): 60; Plant response rating ([2]; Preemergence, 125 g ai/ha): 65; Plant response rating, Barnyardgrass ([3]; 16 g ai/ha): 0 |
| O=C1NCC(c2ccc(OC(F)F)cc2)C1C(=O)Nc1cccc(F)c1F (racemic) [Compound 350] |  |  |  |  |  |  | 15 | 40 | 60 | 98 | 0 | 40 | 75 | 90 |  |  |  |  |  |  |  |
| O=C1NCC(c2ccc(F)c(F)c2)C1C(=O)Nc1cccc(F)c1F (stereo not drawn) [Compound 17, N-(2,3-difluorophenyl)-4-(3,4-difluorophenyl)-2-oxo-3-pyrrolidinecarboxamide] |  |  |  |  |  |  | 0 | 80 | 95 | 98 | 0 | 0 | 25 | 50 | 0 | 0 | 10 | 10 | 0 | 0 | Plant response rating ([1]; Postemergence, 16 g ai/ha): 0; Plant response rating ([2]; Postemergence, 16 g ai/ha): 0; Plant response rating ([2]; Postemergence, 125 g ai/ha): 10; Plant response rating ([2]; Postemergence, 250 g ai/ha): 30; Plant response rating, Barnyardgrass ([3]; 16 g ai/ha): 0; Plant response rating, Kochia ([4]; 16 g ai/ha): 0; Plant response rating, Goosegrass ([5]; Postemergence, 31 g ai/ha, scale 0 (no effect) to 100 (complete control)): 0; Plant response rating, Goosegrass ([5]; Postemergence, 62 g ai/ha, scale 0 to 100 (0 no effect, 100 complete control)): 0; Plant response rating, Goosegrass ([5]; Postemergence, 125 g ai/ha, scale 0 to 100 (0 no effect, 100 complete control)): 0; Plant response rating, Goosegrass ([5]; Postemergence, 250 g ai/ha, scale 0 to 100 (0 no effect, 100 complete control)): 0; Plant response rating, Goosegrass [5, 6]: 50; Plant response rating, Goosegrass [5, 7]: 85; Goosegrass plant response rating [5, 8]: 0 |
| O=C1NC[C@H](c2cccc(C(F)(F)F)c2)[C@H]1C(=O)Nc1ccccc1F [Compound 204, (3R,4S)—N-(2-fluorophenyl)-2-oxo-4-[3-(trifluoromethyl)phenyl]-3-pyrrolidinecarboxamide] | 25 | 25 | 35 | 10 | 0 | 25 | 20 | 75 | 98 | 98 | 0 | 0 | 90 | 40 |  |  |  |  |  |  | Plant response rating, Deadnettle ([1]; Preemergence, 125 g ai/ha): 25; Plant response rating, Galium ([2]; Preemergence, 125 g ai/ha): 10 |

— patent publication US10294202B2, “Pyrrolidinones as herbicides” (FMC Corporation, priority 2013, dated 2019)
